system: DSPP gene; experiment: mRNA level of DSPP gene in MDPC-23 cells by RT-PCR and real-time PCR; type: cell-based, mouse; conditions: cultured 48 hours with peptide, relative ratio to mRNA level in untreated control, Gapdh internal control, repeated three times
Description: The MDPC-23 cells cultured in Example 2-1 were treated with the peptides of each group synthesized in Example 1, then cultured for 48 hours. The mRNA level of the DSPP, an odontoblast differentiation marker gene, expressed in the MDPC-23 cells were measured, and the measured mRNA level of each DSPP gene was converted into a relative ratio to the mRNA level of the DSPP gene measured in control (Tables 13 to 24). In addition, the average value of the mRNA level of the DSPP gene measured according to the peptides of each group was compared (FIG. 1B). At this time, as a control, MDPC-23 cells that were not treated with the peptide promoting differentiation of odontoblast were used.
The expression level of the DSPP gene was measured through RT-PCR and real-time PCR analysis: Specifically, total RNA was extracted from the MDPC-23 cells using TRIzol reagent. 2 μg of the total RNA, 1 μl of reverse transcriptase, and 0.5 μg of oligo (oligo; dT) were used to synthesize cDNA. The synthesized cDNA was used in a real-time polymerase chain reaction. The real-time polymerase chain reaction was performed on an ABI PRISM 7500 sequence detection system (Applied Biosystems) and an SYBR GREEN PCR Master Mix (Takara, Japan). The real-time polymerase chain reaction was performed under conditions of 94° C., 1 min; 95° C., 15 sec; 60° C., 34 sec for 40 cycles. Results were analyzed by a comparative cycle threshold (CT) method. At this time, the Gapdh gene was used as the internal control group, and the measured value was repeated three times. The mean value and standard deviation value thereof were used.

Compared with “73 (KYKQRKKSKY; Novel peptide) [compound 73]”, “74 (KYKQRKRSKY; Novel peptide) [compound 74]” is lower in “mRNA level of Dspp gene Mean” value: 2.035 for the first, 2.011 for the second.

First: 75 (KYKQRRKSKY; Novel peptide) [compound 75]
Second: 76 (KYKQRRRSKY; Novel peptide) [compound 76]
The “mRNA level of Dspp gene Mean” value of the first is lower: 1.997 for the first, 2.351 for the second.

First: 77 (KYKQKKKSKY; Novel peptide) [compound 77]
Second: 78 (KYKQKRKSKY; Novel peptide) [compound 78]
The “mRNA level of Dspp gene Mean” value of the first is lower: 1.729 for the first, 2.635 for the second.

Compared with “79 (KYKQKKRSKY; Novel peptide) [compound 79]”, “80 (KYKQKRRSKY; Novel peptide) [compound 80]” is lower in “mRNA level of Dspp gene Mean” value: 2.231 for the first, 1.837 for the second.

Going from “81 (KYKQRKKNYK; Novel peptide) [compound 81]” to “82 (KYKQRKRNYK; Novel peptide) [compound 82]”, the “mRNA level of Dspp gene Mean” value rises from 3.092 to 3.361.

First: 83 (KYKQRRKNYK; Novel peptide) [compound 83]
Second: 84 (KYKQRRRNYK; Novel peptide) [compound 84]
The “mRNA level of Dspp gene Mean” value of the first is lower: 3.572 for the first, 3.702 for the second.

Going from “85 (KYKQKKKNYK; Novel peptide) [compound 85]” to “86 (KYKQKRKNYK; Novel peptide) [compound 86]”, the “mRNA level of Dspp gene Mean” value rises from 3.67 to 3.705.

First: 87 (KYKQKKRNYK; Novel peptide) [compound 87]
Second: 88 (KYKQKRRNYK; Novel peptide) [compound 88]
The “mRNA level of Dspp gene Mean” value of the first is lower: 3.888 for the first, 4.021 for the second.

First: 89 (KYKQRKKSYK; Novel peptide) [compound 89]
Second: 90 (KYKQRKRSYK; Novel peptide) [compound 90]
The “mRNA level of Dspp gene Mean” value of the first is lower: 4.211 for the first, 4.811 for the second.

First: 91 (KYKQRRKSYK; Novel peptide) [compound 91]
Second: 92 (KYKQRRRSYK; Novel peptide) [compound 92]
The “mRNA level of Dspp gene Mean” value of the first is higher: 4.362 for the first, 4.211 for the second.

First: 93 (KYKQKKKSYK; Novel peptide) [compound 93]
Second: 94 (KYKQKRKSYK; Novel peptide) [compound 94]
The “mRNA level of Dspp gene Mean” value of the first is higher: 4.525 for the first, 3.836 for the second.

First: 95 (KYKQKKRSYK; Novel peptide) [compound 95]
Second: 96 (KYKQKRRSYK; Novel peptide) [compound 96]
The “mRNA level of Dspp gene Mean” value of the first is lower: 4.62 for the first, 5.211 for the second.

— US11452682B2, “Toothpaste composition for alleviating dentin hyperesthesia” (HYSENSBIO, priority 2018, dated 2022)
